# According to the SangsterLogP compilation:
# Experiment: method code SF-HPLC, from DOI: 10.1002/qsar.19910100205
# Details: pH 3.5
row,Structure (SMILES),logD
1,O=C1NC(=O)N(c2ccccc2)C1=O,0.6
2,O=C1NC(=O)C(Cc2ccccc2)O1 (configuration not stated),1.2
3,O=C1CC(=O)N(c2ccccc2)O1,0.54
4,O=C1NC(=O)N(Cc2ccccc2)C1=O,1.19
5,NS(=O)(=O)NC(=O)Cc1ccccc1,0.31
6,CC1(COc2ccc(CC3SC(=O)NC3=O)cc2)CCCCC1 (configuration not stated),3.57
7,O=c1[nH]c(=O)n(-c2ccccc2)o1,1.68
8,O=C1CC(=O)N(Cc2ccccc2)C1,0.76
9,O=C1NC(=O)C(Cc2ccccc2)S1 (configuration not stated),1.98

# The next lines start with the values.
row,logD,Structure (SMILES)
1,0.76,O=C1CN(Cc2ccccc2)C(=O)N1
2,0.04,O=C1CNC(=O)N1c1ccccc1
3,0.6,O=C1NC(=O)C(Cc2ccccc2)N1 (configuration not stated)
4,0.83,O=C1CN(c2ccccc2)C(=O)N1
5,1.09,O=C1NC(=O)C(c2ccccc2)O1 (configuration not stated)
6,1.07,O=C1CC(=O)C(c2ccccc2)O1 (configuration not stated)
7,0.18,O=C1CS(=O)(=O)C(c2ccccc2)N1 (configuration not stated)
8,0.48,O=C1CC(=O)C(c2ccccc2)N1 (configuration not stated)
